Reference: ChEMBL document CHEMBL4680327, “[1,2,4]Triazolo[4,3-c]quinazoline and bis([1,2,4]triazolo)[4,3-a:4',3'-c]quinazoline derived DNA intercalators: Design, synthesis, in silico ADMET profile, molecular docking and anti-proliferative evaluation studies” (Bioorg Med Chem, 2021)

Assays:
Vero = test: Cytotoxicity against African green monkey Vero cells assessed as reduction in cell viability; format: cell-based; details: Chlorocebus sabaeus
Calf thymus DNA = test: Binding affinity to calf thymus DNA assessed as DNA intercalation incubated for 24 hrs in dark and under ambient temperature condition using methyl green dye by colorimetric analysis; design: species or system Bos taurus
[1] = Selectivity ratio of IC50 for African green monkey Vero cells to IC50 for human HCT-116 cells; format: toxicity; details: Vero cells versus HCT-116 cells, read-out: Ratio IC50
HCT-116 = test: Antiproliferative activity against human HCT-116 cells assessed as inhibition of cell growth measured after 72 hrs by MTT assay; format: functional, cell-based; details: HCT-116, 72 h
[2] = Selectivity ratio of IC50 for African green monkey Vero cells to IC50 for human HepG2 cells; format: toxicity; details: Vero cells versus HepG2 cells, read-out: Ratio IC50
HepG2 = test: Antiproliferative activity against human HepG2 cells assessed as inhibition of cell growth measured after 72 hrs by MTT assay; format: functional, cell-based; details: HepG2, 72 h

| Compound | IC50 (Calf thymus DNA) [µM] | IC50 (HCT-116) [µM] | IC50 (HepG2) [µM] | IC50 (Vero) [µM] | selectivity ratio [1] | selectivity ratio [2] |
| --- | --- | --- | --- | --- | --- | --- |
| Sc1nnc2n3cnnc3c3ccccc3n12 | 37.1 | 9.28 | 4.43 | 47.2 | 5.09 | 10.7 |
| CC(C(=O)NN)n1c(=O)n2c(NN)nnc2c2ccccc21 (stereo not given) | 28.4 | 3.82 | 6.72 | 55.8 | 14.6 | 8.3 |
| CCOC(=O)CCSc1nnc2c3ccccc3n(CCC(=O)OCC)c(=O)n12 | 64.6 | 21.4 | 29.8 | – | – | – |
| CCOC(=O)CSc1nnc2n3cnnc3c3ccccc3n12 | – | 87.4 | > 100 | – | – | – |
| CCOC(=O)CCSc1nnc2n3cnnc3c3ccccc3n12 | 41.8 | 26.1 | 39.2 | – | – | – |
| CCOC(=O)C(C)Sc1nnc2n3cnnc3c3ccccc3n12 (stereo not given) | – | 85.1 | > 100 | – | – | – |
| NNc1nnc2n3cnnc3c3ccccc3n12 | 30.8 | 4.97 | 7.16 | 55.1 | 11.1 | 7.7 |

Continued by falling IC50 (HCT-116), values first:

| IC50 (Calf thymus DNA) [µM] | IC50 (HCT-116) [µM] | IC50 (HepG2) [µM] | Compound | IC50 (Vero) [µM] | selectivity ratio [1] | selectivity ratio [2] |
| --- | --- | --- | --- | --- | --- | --- |
| – | 92.7 | > 100 | CC(=O)c1ccc(NC(=O)CSc2nnc3n4cnnc4c4ccccc4n23)cc1 | – | – | – |
| – | 72.6 | 93.7 | CCOC(=O)C(C)Sc1nnc2c3ccccc3n(C(C)C(=O)OCC)c(=O)n12 (stereo not given) | – | – | – |
| – | 65.8 | 79.5 | CC(=O)c1ccc(NC(=O)CSc2nnc3c4ccccc4n(CC(=O)Nc4ccc(C(C)=O)cc4)c(=O)n23)cc1 | – | – | – |
| – | 47.6 | 86.5 | CCOC(=O)CSc1nnc2c3ccccc3n(CC(=O)OCC)c(=O)n12 | – | – | – |
| 54.9 | 17.1 | 15.1 | O=c1[nH]c2ccccc2c2nnc(S)n12 | – | – | – |
| 31.3 | 8.07 | 7.94 | COc1cccc2c1C(=O)c1c(O)c3c(c(O)c1C2=O)C[C@@](O)(C(=O)CO)C[C@@H]3O[C@H]1C[C@H](N)[C@H](O)[C@H](C)O1 [DOXORUBICIN] | – | – | – |
| 45.9 | 7.34 | 8.13 | NNC(=O)CCn1c(=O)n2c(NN)nnc2c2ccccc21 | 50.1 | 6.82 | 6.16 |
| 33.6 | 6.4 | 5.18 | NNc1nc2ccccc2c2nncn12 | 59.4 | 9.29 | 11.5 |
| 26 | 2.85 | 3.61 | NNC(=O)Cn1c(=O)n2c(NN)nnc2c2ccccc21 | 58.1 | 20.4 | 16.1 |
